Measured values taken from PMC6479694, “Studies on the Interaction between Poly-Phosphane Gold(I) Complexes and Dihydrofolate Reductase: An Interplay with Nicotinamide Adenine Dinucleotide Cofactor” (International Journal of Molecular Sciences, 2019).
Where “and” joins values, the source holds several entries; their conditions need not be identical. Identical values can stand only once. Like-named read-outs stand apart in the source and are kept apart here.

Assays:
DHFR from E. coli [1] = molecular target: T1, DHFR from E. coli (Escherichia coli, UniProt P0ABQ4); experiment: Fluorimetric binding assay, quenching of DHFR tryptophan emission (λexc = 280 nm); conditions: for TΔS°: from van't Hoff analysis; for ΔG°: standard free energy equation from ΔH° and TΔS°; for ΔH° / ΔS°: van't Hoff equation from Kd at 25, 10 and −4 °C
T1 construct: made in house
Experimental: The Hepes/methanol solutions of the gold(I) compounds were used for the fluorimetric assays (see materials and methods section) regarding DHFR from E. coli. The emission’s maximum of DHFR was detected at 344 nm upon excitation at 280 nm; by adding additional amounts of the gold complex in Hepes/methanol solutions (ranging among 4 ÷ 50 µM), the quenching of this emission intensity was observed. In Figure 3, spectra showing the effect of ^4L3AuCl on DHFR emission are reported. It is possible to observe the quenching of the Tryptophan’s emission and the corresponding increase of the intrinsic phosphorescence of the gold compound.
(§1) The fluorimetric analysis was performed using a 1 mL quartz cuvette and a Perkin–Elmer Fluorescence Spectrometer LS 55. For all the analysis we used 5–12 µM solutions of DHFR and increasing concentrations of gold(I) compounds in the 4–60 µM range. For some experiments, saturating concentrations of NADPH (50 µM) were added to the initial solutions of DHFR to observe the affinity variation of the complexes with respect to the DHFR.
All the spectra were recorded in the range between 250 and 600 nm using an excitation wavelength characteristic of the Tryptophan, equal to 280 nm. For most of the experiments the temperature was kept constant at 25 °C; furthermore, to analyze the thermodynamic aspects of the reactions (via the van’t Hoff equation), quenching spectra of DHFR in presence of the gold(I) complexes were recorded at −4 and 10 °C as well.
(§2) The fluorimetric data were analyzed using the binding isotherm (Equation (2)), where [Q] is the concentration of the added quenching ligand, F is the measured fluorescence, F0 is the starting fluorescence, Fc is the fluorescence of the fully complexed protein, Kd is the dissociation constant, and n is the Hill coefficient. Indeed, n is a phenomenological parameter, an interaction coefficient, such as when n = 1 the equation describes a complex formation with one site of interaction, when n = 2 binding occurs with a dimer, when 1 < n < 2 a cooperative interaction occurs. (2) F0−F/F−Fc=[Q]^n/(Kd+[Q])^n

DHFR from E. coli [2] = molecular target: T1, DHFR from E. coli; experiment: Inhibition of DHFR-catalysed reduction of H2F to H4F, spectrophotometric at 340 nm, Dixon plot; format: biochemical; conditions: pH 7.3, 30 °C, saturating NADPH, H2F 1.5-10 µM, Hepes/methanol
Experimental: The phosphane gold(I) compounds were used to prepare buffered stock solutions at pH = 7.3 at 30 °C for the inhibition tests of DHFR from E coli. In Table 1, the list of the gold(I) compounds used for the tests and the corresponding inhibition constants are reported.
The inhibition action of the gold phosphane compounds was tested in regards to the reduction of H2F to H4F reaction, catalyzed by DHFR [2]. The inhibition tests were led by analyzing the reciprocal reaction rate upon the addition of Hepes/methanol solutions of gold compounds in different set of tests in the saturated concentration of NADPH. The tests were repeated with different amounts of dihydrofolate (DHF) (1.5 ÷ 10 µM).
The standard deviations were calculated for a minimum of three determinations. (1) 1/ν=Km/VmaxKi[S]∗[I]+1/Vmax(1+Km/[S])
The activity of the DHFR was followed by recording the absorbance with a Shimadzu UV-2450 (UV-Vis spectrophotometer). The enzyme assays were made in a quartz cuvette by using similar experimental conditions: DHFR 3-5 nM, NADPH 60–80 μM, and H2F 1.5, 4, and 10 μM. The procedure consisted in the preparation of the following mixtures: 800–971 µL of 50 mM Hepes buffer at pH = 7.3, 20 μL of NADPH, 10 µl of DHFR, and increasing quantities of gold(I) compounds stock solutions in order to achieve higher accuracy in the measurement of the inhibitory effect. After storing the mixture for 5 min at 30 °C, 4–33 µL of H2F was added. The decreasing absorbance at 340 nm, due to the oxidation of NADPH to NADP^+, was detected after adding the H2F, and expressed in U mL^−1 using the equation: U·mL^−1 = Δabs/Δt/11.8 × dilution factor, where 11.8 is the mMolar extinction coefficient when NADPH and H2F are simultaneously present in solution. The Ki values were calculated with the Dixon plot from the second plot obtained computing the slope values against the reciprocal of the H2F concentrations.

DHFR/NADPH = molecular target: T2, DHFR/NADPH (Escherichia coli, UniProt P0ABQ4); experiment: Fluorimetric binding assay on DHFR in presence of saturating NADPH; conditions: 25 °C, saturating NADPH (50 µM); read-out: Kd ± s.d. (25 °C) in presence of saturating NADPH
T2 construct: made in house
Text: After these preliminary emissive property characterizations, the fluorimetric studies were led in the presence of the enzyme DHFR and the cofactor NADPH [26]. […] Additionally, NADPH is fluorescent, with an absorption maximum at about 340 nm and an emission maximum at about 450 nm. […] Moreover, because NADPH has a maximum of absorption at 340 nm, significant energy transfer from the excited tryptophan of the enzyme to bound NADPH occurs; as a consequence, a new emission at 420–450 nm is then observed. Figure 8 reports the progressive quenching of the DHFR and NADPH emissions by stepwise adding of solution of ^4L3AuCl. Moreover, a slight shift of the typical emission at […] (λexc = 280 nm) is observed.
as §1, §2

DHFR from E. coli [3] = molecular target: T1, DHFR from E. coli; set-up: method as in PMID 25567238; conditions: values obtained in a previous work, cited from earlier work
[4] = UV-visible spectroscopy stability test in Hepes/methanol solution; format: physicochemical; conditions: 11.85 µM, Hepes/methanol 80:20, 30 °C, one hour, every 3 minutes
Experimental: The preparation of the gold compounds was performed according to methods already published and was based on the substitution of the labile ligand from the gold precursor [AuCl(Me2S)], by mean of a more coordinative ligand, such as the PPh3 or its modified analogs, ^4L and ^2L. Mole ratio with an excess of the phosphane ligand was pursued with the aim to enhance the reaction yield for tris-phosphane compounds. The solids obtained by crystallization were characterized by elemental analysis, ^1H and ^31P NMR, IR, and ESI Mass spectrometry. The stability of the stock solutions upon dilution was checked by recording UV-visible spectra (see Supplementary Material, Figures S1 and S2). The reactants for the ester reaction and ^4L or ^2L ligands were bought from Aldrich and used without any purification. Methanol or methylene chloride solvents were degassed and dried over molecular sieves.
UV-visible spectroscopy stability tests of compounds 4L3AuCl, 4L2AuCl, and 2L2AuCl on […]
Acquisitions of the absorptions in the range of 200–700 nm of the tested solutions were led for an hour lapse every 3 minutes in 11.85 µM concentration of 4L3AuCL (figure S1), 4L2AuCl, and 2L2AuCl (figure S2) at 30 °C. The stability was tested in Hepes/methanol 80:20, which are the same conditions used for the inhibition tests.
Figure S1. UV-visible spectra for 11.85 µM of 4L3AuCl in hepes/methanol
(1 picture or pasted object on this page, not shown here)

[5] = 25 °C, without NADPH, Hepes/methanol, read-out: Kd ± s.d., T = 25 °C
[6] = 10 °C, without NADPH, read-out: Kd ± s.d. (10 °C) (converted)
[7] = −4 °C, without NADPH, read-out: Kd ± s.d. (−4 °C) (converted)

Structure (SMILES) | Kd (DHFR from E. coli [1]; [5]) | Ki (DHFR from E. coli [2]) | Kd (DHFR from E. coli [1]; [6]) | TΔS° (DHFR from E. coli [1]) | ΔG° (DHFR from E. coli [1]) | ΔH° (DHFR from E. coli [1]) | ΔS° (DHFR from E. coli [1]) | Kd (DHFR from E. coli [1]; [7]) | Kd (DHFR/NADPH) | Ki (DHFR from E. coli [3]; read-out: Ki) | other results
O=C(O)c1ccccc1 [Benzoic acid, reference compound] | ~4000 µM | – | – | – | – | – | – | – | – | – | –
[Cl][Au]([PH](c1ccccc1)(c1ccccc1)c1ccccc1)[PH](c1ccccc1)(c1ccccc1)c1ccccc1 [L2AuCl, (PPh3)2AuCl] | 5.99 ± 0.4 µM | 0.53 ± 0.03 µM | 2.47 µM | 2.5 n. d. * kcal/mol | −7.37 n. d. * kcal/mol | −4.87 n. d.* kcal/mol | 8.42 n. d. * cal/mol K | 3.83 µM | 2.22 ± 0.25 µM | – | Kd (DHFR from E. coli [1]; conditions not stated in the conclusions, read-out: thermodynamic constant for the dissociation of the adduct [DHFR:(PPh3)2AuCl]): ~2 µM
c1ccc(P(c2ccccc2)c2ccccc2)cc1 [L, PPh3, reference compound] | – | – | – | – | – | – | – | – | – | 6.16 ± 0.77 µM | –
[Cl][Au].c1ccc(P(c2ccccc2)c2ccccc2)cc1 [LAuCl, PPh3AuCl] | – | – | – | – | – | – | – | – | – | 1.21 ± 0.2 µM | –
O=C(O)c1ccccc1P(c1ccccc1)c1ccccc1.O=C(O)c1ccccc1P(c1ccccc1)c1ccccc1.[Cl][Au] [^2L2AuCl, (2COOHPh-Ph2P)2AuCl] | 10.3 ± 0.65 µM | – | – | – | – | – | – | – | 4.73 ± 0.68 µM | 2 µM and 2.07 µM | Stability of the solution (UV-visible spectra 200–700 nm) [4]: no overall changes in solution over
O=C(O)c1ccccc1P(c1ccccc1)c1ccccc1.O=C(O)c1ccccc1P(c1ccccc1)c1ccccc1.O=C(O)c1ccccc1P(c1ccccc1)c1ccccc1.[Cl][Au] [^2L3AuCl, [tris(2-benzoate-diphenylphosphanyl)-gold(I)chloride]] | 10.5 ± 1.07 µM | 21.3 ± 3.8 µM | 7.12 µM | 2.86 ± 0.1 kcal/mol | -6.8 ± 0.14 kcal/mol | -3.94 ± 0.1 kcal/mol | 9.58 ± 0.08 cal/mol K | 5.11 µM | 7.32 ± 2.46 µM | – | n = Hill coefficient (DHFR from E. coli [1]; 10 °C): 1.41 ± 0.048; n = Hill coefficient (DHFR from E. coli [1]; 25 °C, when not specified n = 1): 1.23 ± 0.082
O=C(O)c1ccccc1P(c1ccccc1)c1ccccc1 [^2L, 2-(diphenylphosphine) benzoic acid, reference compound] | – | – | – | – | – | – | – | – | – | – | Ki (DHFR from E. coli [3]): No inhibition *
O=C(O)c1ccccc1P(c1ccccc1)c1ccccc1.[Cl][Au] [^2LAuCl, (2COOHPh-Ph2P)AuCl] | – | – | – | – | – | – | – | – | – | 1.1 ± 0.3 µM | –
O=C(O)c1ccc(P(c2ccccc2)c2ccccc2)cc1.O=C(O)c1ccc(P(c2ccccc2)c2ccccc2)cc1.[Cl][Au] [^4L2AuCl, (4COOHPh-Ph2P)2AuCl] | 4.42 ± 0.56 µM | – | 3.52 µM | 5.29 ± 0.2 kcal/mol | -7.31 ± 0.28 kcal/mol | -2.02 ± 0.2 kcal/mol | 17.76 ± 0.1 cal/mol K | 3.06 µM | 2.35 ± 0.61 µM | 27 µM and 27.8 µM | Stability of the solution (UV-visible spectra 200–700 nm) [4]: no overall changes in solution over
O=C(O)c1ccc(P(c2ccccc2)c2ccccc2)cc1.O=C(O)c1ccc(P(c2ccccc2)c2ccccc2)cc1.O=C(O)c1ccc(P(c2ccccc2)c2ccccc2)cc1.O=S(=O)([O][Au])C(F)(F)F [^4L3AuTfl, [tris(4-benzoate-diphenylphosphanyl)-gold(I)triflate]] | 21.4 ± 3.85 µM | 6.33 ± 0.7 µM | – | 1.17 ± 0.9 kcal/mol | – | -5.32 ± 3.2 kcal/mol | 3.92 ± 8.8 cal/mol K | 8.08 µM | – | – | –
O=C(O)c1ccc(P(c2ccccc2)c2ccccc2)cc1 [^4L, 4-(diphenylphosphino)benzoic acid, reference compound] | 59.6 ± 5.7 µM | – | – | – | – | – | – | – | – | – | Ki (DHFR from E. coli [3]): No inhibition *
O=C(O)c1ccc(P(c2ccccc2)c2ccccc2)cc1.[Cl][Au] [^4LAuCl, (4COOHPh-Ph2P)AuCl] | – | – | – | – | – | – | – | – | – | 2.25 ± 0.62 µM | –
COC(=O)c1ccc(P(c2ccccc2)c2ccccc2)cc1.COC(=O)c1ccc(P(c2ccccc2)c2ccccc2)cc1.COC(=O)c1ccc(P(c2ccccc2)c2ccccc2)cc1.[Cl][Au] [^4MeL3AuCl] | 13.4 ± 2.24 µM | 12.7 ± 2.1 µM | 7.63 µM | 2.29 n. d. * kcal/mol | −6.64 n. d. * kcal/mol | −4.35 n. d. * kcal/mol | 7.69 n. d. * cal/mol K | 21.2 µM | 4.55 ± 1.04 µM | – | –
